# Test results as given in patent publication US20260365628A1, “SUBSTITUTED 3,4-DIHYDROQUINOLINONE INHIBITORS OF TSHR” (Septerna, Inc., priority 2022, published 2026).
# Molecular target: T1, hTSHR (Homo sapiens, UniProt P16473)
# T1 construct: expressed in transfected cells
# Experiment: hTSHR TR-FRET cAMP Assay (inhibition of M22-stimulated cAMP production)
# Assay type: cell-based
# Settings: not given
# Method in brief: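 Readout was a cAMP HTRF ratio of 655/620 nm after lysis, scaled between the EC80 M22 signal (0% inhibition) and no-agonist vehicle (100%). Frozen induced Expi293F-hTSHR cells saw test compounds (0.5% DMSO) for 15 min at 37 °C before 30 min of M22 stimulation at EC80.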
# T1 sequence (P16473 21-764): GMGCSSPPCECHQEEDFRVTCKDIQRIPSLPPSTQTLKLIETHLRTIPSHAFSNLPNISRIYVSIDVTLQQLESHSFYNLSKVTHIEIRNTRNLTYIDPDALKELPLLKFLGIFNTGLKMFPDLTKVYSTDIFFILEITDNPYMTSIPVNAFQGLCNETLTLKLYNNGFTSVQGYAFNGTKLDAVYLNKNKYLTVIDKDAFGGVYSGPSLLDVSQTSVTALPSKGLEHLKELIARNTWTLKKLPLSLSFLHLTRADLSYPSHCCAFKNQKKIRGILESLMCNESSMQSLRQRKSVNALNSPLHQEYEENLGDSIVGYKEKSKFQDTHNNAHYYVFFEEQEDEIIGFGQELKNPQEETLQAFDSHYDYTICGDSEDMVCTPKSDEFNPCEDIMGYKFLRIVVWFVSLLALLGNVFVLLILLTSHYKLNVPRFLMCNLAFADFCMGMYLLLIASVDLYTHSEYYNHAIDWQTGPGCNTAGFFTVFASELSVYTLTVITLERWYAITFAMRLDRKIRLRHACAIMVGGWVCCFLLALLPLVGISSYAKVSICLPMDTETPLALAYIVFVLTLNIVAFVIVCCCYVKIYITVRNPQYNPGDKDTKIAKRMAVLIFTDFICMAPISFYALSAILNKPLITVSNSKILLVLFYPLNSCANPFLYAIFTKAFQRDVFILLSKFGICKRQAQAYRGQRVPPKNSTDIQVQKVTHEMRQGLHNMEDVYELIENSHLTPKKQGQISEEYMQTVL
row,IC50,SMILES
1,100 to 1000 nM,"C[C@@H](c1cccc(-c2ccccc2)c1)n1c(=O)cnc2cc(NC(=O)NC(C)(C)C)ccc21 [Example 112, (S)-1-(1-(1-([1,1′-biphenyl]-3-yl)ethyl)-2-oxo-1,2-dihydroquinoxalin-6-yl)-3-(tert-butyl)urea]"

# Same assay, conditions: Expi293F Inducible cells stably expressing hTSHR; cAMP HTRF; stimulated with EC80 of anti-TSHR antibody M22; 15 min compound preincubation, 30 min at 37° C.; read-out: Activity (IC50 bins)
row,SMILES,IC50
1,"CC(C)(C)NC(=O)Nc1ccc2c(c1)ncc(=O)n2Cc1cccc(CCCC(F)(F)F)n1 [Example 95, 1-(tert-butyl)-3-(2-oxo-1-((6-(4,4,4-trifluoro-butyl)pyri-din-2-yl)methyl)-1,2-dihydro-quinoxalin-6-yl)urea]",100 to 1000 nM
2,"CC(C)(C)NC(=O)Nc1ccc2c(c1)ncc(=O)n2Cc1cccc2c1OCCC2 [Example 96, 1-(tert-buty1)-3-(1-(chroman-8-ylmethyl)-2-oxo-1,2-dihydro-quinoxalin-6-yl)urea]",100 to 1000 nM
3,"CC(C)(C)NC(=O)Nc1ccc2c(c1)ncc(=O)n2Cc1cccc2c1CCCO2 [Example 97, 1-(tert-butyl)-3-(1-(chroman-5-ylmethyl)-2-oxo-1,2-di-hydro-quinoxalin-6-yl)urea]",100 to 1000 nM
4,"C[C@@H](c1cccc(OC(F)(F)F)c1)n1c(=O)cnc2cc(NC(=O)NC(C)(C)C)ccc21 [Example 100, (S)-1-(tert-butyl)-3-(2-oxo-1-(1-(3-(trifluoromethoxy)phe-nyl)ethyl)-1,2-dihydroquinoxalin-6-yl)urea]",< 100 nM
5,"C[C@@H](c1cc(Cl)cc(Cl)c1)n1c(=O)cnc2cc(NC(=O)NC(C)(C)C)ccc21 [Example 101, (S)-1-(tert-butyl)-3-(1-(1-(3,5-dichlorophenyl)ethyl)-2-oxo-1,2-dihydroquinoxalin-6-yl)urea]",100 to 1000 nM
6,"C[C@@H](c1cccc(C(F)(F)F)n1)n1c(=O)cnc2cc(NC(=O)NC(C)(C)C)ccc21 [Example 103, (S)-1-(tert-butyl)-3-(2-oxo-1-(1-(6-(tri-fluoromethyl)pyridin-2-yl)ethyl)-1,2-dihydroquinoxalin-6-yl)urea]",100 to 1000 nM
7,"C[C@@H](c1cc(OC(F)(F)F)ccc1F)n1c(=O)cnc2cc(NC(=O)NC(C)(C)C)ccc21 [Example 104, (S)-1-(tert-butyl)-3-(1-(1-(2-fluoro-5-(trifluoromethoxy)phe-nyl)ethyl)-2-oxo-1,2-dihydroquinoxalin-6-yl)urea]",100 to 1000 nM
8,"C[C@@H](c1ccc(F)c(OC(F)(F)F)c1)n1c(=O)cnc2cc(NC(=O)NC(C)(C)C)ccc21 [Example 105, (S)-1-(tert-buty1)-3-(1-(1-(4-fluoro-3-(trifluoromethoxy)phe-nyl)ethyl)-2-oxo-1,2-dihydroquinoxalin-6-yl)urea]",< 100 nM
9,"C[C@@H](c1cccc(OC(F)(F)F)n1)n1c(=O)cnc2cc(NC(=O)NC3(C)CCC3)ccc21 [Example 106, (S)-1-(1-methylcyclobutyl)-3-(2-oxo-1-(1-(6-(trifluoromethoxy)pyri-din-2-yl)ethyl)-1,2-dihydroquinoxalin-6-yl)urea]",100 to 1000 nM
10,"C[C@@H](c1cccc(OCCC(F)(F)F)c1)n1c(=O)cnc2cc(NC(=O)NC(C)(C)C)ccc21 [Example 109, (S)-1-(tert-butyl)-3-(2-oxo-1-(1-(3-(3,3,3-trifluoropropoxy)phenyl)ethyl)-1,2-dihydroquinoxalin-6-yl)urea]",100 to 1000 nM
11,"C[C@@H](c1cccc(OC2CCCC2)c1)n1c(=O)cnc2cc(NC(=O)NC(C)(C)C)ccc21 [Example 111, (S)-1-(tert-butyl)-3-(1-(1-(3-(cyclo-pentyloxy)phenyl)ethyl)-2-oxo-1,2-dihydroquinoxalin-6-yl)urea]",> 1000 nM
12,"C[C@@H](c1cccc(Oc2ccccc2)c1)n1c(=O)cnc2cc(NC(=O)NC(C)(C)C)ccc21 [Example 114, (S)-1-(tert-butyl)-3-(2-oxo-1-(1-(3-phenoxyphenyl)ethyl)-1,2-dihydroquinoxalin-6-yl)urea]",100 to 1000 nM
13,"C[C@@H](c1cccc(OC2CCCCC2)c1)n1c(=O)cnc2cc(NC(=O)NC(C)(C)C)ccc21 [Example 115, (S)-1-(tert-butyl)-3-(1-(1-(3-(cyclohexyloxy)phenyl)ethyl)-2-oxo-1,2-dihydroquinoxalin-6-yl)urea]",100 to 1000 nM
14,"C[C@@H](c1cccc(OCC2CCOCC2)c1)n1c(=O)cnc2cc(NC(=O)NC(C)(C)C)ccc21 [Example 117, (S)-1-(tert-butyl)-3-(2-oxo-1-(1-(3-((tetrahydro-2H-pyran-4-yl)methoxy)phenyl)eth-yl)-1,2-dihydroquinoxalin-6-yl)urea]",> 1000 nM

# Further lines, results first:
row,IC50,SMILES
1,100 to 1000 nM,"C[C@@H](c1ccccc1)n1c(=O)cnc2cc(NC(=O)NC(C)(C)C)ccc21 [Example 98, (S)-1-(tert-butyl)-3-(2-oxo-1-(1-phenylethyl)-1,2-dihydroquinoxalin-6-yl)urea]"
2,100 to 1000 nM,"C[C@@H](c1cccc(C(F)(F)F)c1)n1c(=O)cnc2cc(NC(=O)NC(C)(C)C)ccc21 [Example 99, (S)-1-(tert-butyl)-3-(2-oxo-1-(1-(3-(trifluoromethyl)phenyl)ethyl)-1,2-dihydroquinoxalin-6-yl)urea]"
3,100 to 1000 nM,"C[C@@H](c1cccc(CC(F)(F)F)c1)n1c(=O)cnc2cc(NC(=O)NC(C)(C)C)ccc21 [Example 102, (S)-1-(tert-butyl)-3-(2-oxo-1-(1-(3-(2,2,2-trifluoroethyl)phe-nyl)ethyl)-1,2-dihydroquinoxalin-6-yl)urea]"
4,100 to 1000 nM,"CC(C)CCc1cccc([C@H](C)n2c(=O)cnc3cc(NC(=O)NC(C)(C)C)ccc32)c1 [Example 107, (S)-1-(tert-butyl)-3-(1-(1-(3-isopentylphenyl)ethyl)-2-oxo-1,2-dihydroquinoxalin-6-yl)urea]"
5,100 to 1000 nM,"C[C@@H](c1cccc(CCCC(F)(F)F)c1)n1c(=O)cnc2cc(NC(=O)NC(C)(C)C)ccc21 [Example 108, (S)-1-(tert-butyl)-3-(2-oxo-1-(1-(3-(4,4,4-trifluorobutyl)phenyl)ethyl)-1,2-dihydroquinoxalin-6-yl)urea]"
6,100 to 1000 nM,"C[C@@H](c1cccc(CCOC(F)(F)F)c1)n1c(=O)cnc2cc(NC(=O)NC(C)(C)C)ccc21 [Example 110, (S)-1-(tert-butyl)-3-(2-oxo-1-(1-(3-(2-(tri-fluoromethoxy)ethyl)phenyl)ethyl)-1,2-dihydroquinoxalin-6-yl)urea]"
7,> 1000 nM,"C[C@@H](c1cccc(C#CC(C)(C)O)c1)n1c(=O)cnc2cc(NC(=O)NC(C)(C)C)ccc21 [Example 113, (S)-1-(tert-butyl)-3-(1-(1-(3-(3-hydroxy-3-methylbut-1-yn-1-yl)phenyl)ethyl)-2-oxo-1,2-dihydroquinoxalin-6-yl)urea]"
8,> 1000 nM,"C[C@@H](c1cccc(CCC(C)(C)O)c1)n1c(=O)cnc2cc(NC(=O)NC(C)(C)C)ccc21 [Example 116, (S)-1-(tert-butyl)-3-(1-(1-(3-(3-hydroxy-3-methylbutyl)phenyl)ethyl)-2-oxo-1,2-dihydroquinoxalin-6-yl)urea]"
9,> 1000 nM,"C[C@@H](c1cccc(CCCC(C)(C)O)c1)n1c(=O)cnc2cc(NC(=O)NC(C)(C)C)ccc21 [Example 118, (S)-1-(tert-butyl)-3-(1-(1-(3-(4-hydroxy-4-methylpentyl)phenyl)ethyl)-2-oxo-1,2-dihydroquinoxalin-6-yl)urea]"
10,> 1000 nM,"C[C@@H](c1cccc(CCOc2cn[nH]c2)c1)n1c(=O)cnc2cc(NC(=O)NC(C)(C)C)ccc21 [Example 119, (S)-1-(1-(1-(3-(2-((1H-pyrazol-4-yl)oxy)ethyl)phenyl)ethyl)-2-oxo-1,2-dihydroquinoxalin-6-yl)-3-(tert-butyl)urea]"
